Assay results published in patent USRE47193E1, “Selectively substituted quinoline compounds” (EISAI R&D MANAGEMENT CO., LTD., priority 2013, dated 2019).

Test system: Human TLR7/8
Assay: Human PBMC cell-based assay, TLR7/8 stimulus (RNA-Ig), cytokine ELISA
Details: primary human PBMC assay, TLR7/8 potency; ligand not given; read-out: Human PBMCs IC50
Method: Human PBMC Cell-Based Assay. Human peripheral blood mononuclear cells (PBMC) were isolated from freshly-drawn heparinized (10 USP units/ml, Hospira, Lakeforest, Ill.) healthy donor whole blood by density gradient (Histopaque® 1077, Sigma, Inc., St. Louis, Mo.). Briefly, 25 ml blood was diluted with 15 ml PBS (without Ca^2+, Mg^2+) in a 50 ml conical tube, and 12 ml Histopaque was underlaid using a spinal needle. Tubes were centrifuged for 45 minutes at 1200 rpm (350×g), and PBMC were collected from the buffy coat. Cells were then washed twice in PBS, and red blood cells were lysed by suspension in 5 ml ammonium chloride solution (1× Red Blood Cell Lysis Buffer, eBioscience) for 5 minutes at room temperature. After a final wash in PBS, PBMC were resuspended at a final concentration of 2×10^6/ml in RPMI-1640 media with L-glutamine (Invitrogen) and supplemented with 25 mM HEPES (Mediatech, Inc, Manassas Va.), 10% fetal bovine serum (HyClone, Logan, Utah), and Penicillin-Streptomycin-Glutamine (Mediatech) and plated at 100 ul/well (2×10^5 cells/well) in tissue culture treated 96-well plates (Falcon).
Antagonist compounds solubilized and serial diluted in 100% DMSO were added in triplicate to cells to yield a final concentration of 0.1% DMSO (v/v). Hydroxychloroquine (Acros Organics) solubilized and serial diluted in PBS was added in triplicate to cells. PBMC were incubated with antagonist compounds or HCQ for 30 minutes at 37° C., 5% CO2 before adding various TLR agonist reagents in 100 ul complete media per well as follows (final concentrations indicated): R848 (Resiquimod; GLSynthesis, Worcester, Mass.) at 1 uM for TLR7 and TLR8, LPS (Sigma) at 10 ng/ml for TLR4, and CpG-2216 (InvivoGen) at 5 ug/ml for TLR9. To prepare a TLR7/8 agonist that mimics RNA-containing auto-antibody immune complexes in lupus patients, a 26-mer RNA with a sequence derived from human U1 snRNA stem loop IV [(sequence: […]-[…] (SEQ ID NO: 2) with phosphorothioate backbone] was synthesized (Dharmacon, Inc., Lafayette, Colo.), which has been shown previously to be a potent TLR7 and TLR8 agonist. This RNA molecule was diluted to 2.5 μM in serum-free RPMI, and mouse anti-human single stranded DNA monoclonal antibody (MAB3034, Millipore, Inc., Billerica, Mass.), which also cross-reacts with RNA, was added at a 1:25 dilution or at 1 ug/ml. The resulting “RNA-Ig” stimulus was incubated at room temperature for 15-30 minutes before adding to cells. PBMC were incubated with the various TLR agonists for 20 hours at 37° C., 5% CO2. Cell culture supernatants were collected, and levels of various human cytokines were assessed as indicated by standard ELISA procedure according to the manufacturer's recommended protocol (BD Biosciences, Inc., San Diego, Calif.). In a subsequent assay (Table 6) the ability of ER-899742 to block stimulation of normal PBMC by various TLR7/8 ligands, but not DNA-mediated activation of TLR9, was examined. In this assay cells were plated at 1×10^5 cells/well in 100 ul in 96-well plates.

SMILES	IC50 [nM]
COc1cccc(NC[C@H]2CN(c3ccc(C#N)c4ncccc34)C[C@@H](C)O2)n1 [ER-886859]	107
CC(=O)N[C@@H]1CCN(C[C@H]2CN(c3ccc(C#N)c4ncccc34)C[C@@H](C)O2)C1 [ER-890252]	42
CC1CN(c2ccc(C#N)c3ncccc23)CC(CN2CCC(CO)CC2)O1 (stereo not shown) [ER-889557]	85
CC1CN(c2ccc(C#N)c3ncccc23)CC(CN2C(C)CCCC2C)O1 (stereo not shown) [ER-886950]	114
CC1CN(c2ccc(C#N)c3ncccc23)CC(CN2CCNCC2C)O1 (stereo not shown) [ER-890344]	2
CC(=O)NC[C@H]1CN(c2ccc(C#N)c3ncccc23)C[C@@H](C)O1 [ER-879689]	1240
CC1CN(c2ccc(C#N)c3ncccc23)CC(C(=O)NC(CO)C(C)(C)C)O1 (stereo not shown) [ER-897940]	21
CCOCC1CN(c2ccc(C#N)c3ncccc23)CC(C)O1 (stereo not shown) [ER-885807]	331
CC(CO)NC(=O)C1CN(c2ccc(C#N)c3ncccc23)CC(C)O1 (stereo not shown) [ER-897446]	53
CC1CN(c2ccc(C#N)c3ncccc23)CC(C(=O)NCC2CCCN2)O1 (stereo not shown) [ER-899414]	25
CC1CCN(CC2CN(c3ccc(C#N)c4ncccc34)CC(C)O2)C1 (stereo not shown) [ER-886868]	50
CC1CCN(C[C@H]2CN(c3ccc(C#N)c4ncccc34)C[C@@H](C)O2)CC1 [ER-887141]	49
C[C@@H]1CN(c2ccc(C#N)c3ncccc23)C[C@H](CN2CCNC(=O)[C@@H]2C)O1 [ER-894484]	174
CC1CN(c2ccc(C#N)c3ncccc23)CC(C(=O)NCC2CCCCN2C)O1 (stereo not shown) [ER-899293]	13
CC1CN(c2ccc(C#N)c3ncccc23)CC(C(=O)N2CC3CNCC3C2)O1 (stereo not shown) [ER-899367]	12
Cc1nn(C)cc1C(=O)NC1CCN(CC2CN(c3ccc(C#N)c4ncccc34)CC(C)O2)CC1 (stereo not shown) [ER-893926]	8
C[C@@H]1CN(c2ccc(C#N)c3ncccc23)C[C@H](Cn2cc(C3CCCCC3)nn2)O1 [ER-888603]	7
CC1CN(c2ccc(C#N)c3ncccc23)CC(C(=O)Nc2ccnn2C)O1 (stereo not shown) [ER-898919]	55
CC1CN(c2ccc(C#N)c3ncccc23)CC(C(=O)NCc2ccn[nH]2)O1 (stereo not shown) [ER-899287]	120
CC1CN(c2ccc(C#N)c3ncccc23)CC(C(=O)NC(CO)C(C)C)O1 (stereo not shown) [ER-897828]	21
C[C@@H]1CN(c2ccc(C#N)c3ncccc23)C[C@H](CN2CCC(NS(=O)(=O)c3ccccc3)CC2)O1 [ER-894149]	31
C[C@@H]1CN(c2ccc(C#N)c3ncccc23)C[C@H](CN2CC[C@@H](O)C2)O1 [ER-886867]	34
CC1CN(c2ccc(C#N)c3ncccc23)CC(C(=O)N2CCC(N(C)C)CC2)O1 (stereo not shown) [ER-899459]	16

SMILES	IC50 [nM]
CC1CN(c2ccc(C#N)c3ncccc23)CC(C(=O)NC2CC3(CNC3)C2)O1 (stereo not shown) [ER-899479]	2
CNC(=O)[C@H]1CN(c2ccc(C#N)c3ncccc23)C[C@@H](C)O1 [ER-899431]	347
Cc1ccnc(NCC2CN(c3ccc(C#N)c4ncccc34)CC(C)O2)c1 (stereo not shown) [ER-886853]	4
CC1CCC(NCC2CN(c3ccc(C#N)c4ncccc34)CC(C)O2)CC1 (mixture of isomers) [ER-887442]	47
CCCCCC(=O)NC1CCN(CC2CN(c3ccc(C#N)c4ncccc34)CC(C)O2)CC1 (stereo not shown) [ER-889744]	8
CC1CN(c2ccc(C#N)c3ncccc23)CC(C(=O)Nc2ccncc2)O1 (stereo not shown) [ER-899282]	34
Cc1cc(CN2CCC(N3CCCCC3)CC2)cc(-c2ccc(C#N)c3ncccc23)c1 [ER-889504]	2
C[C@@H]1CN(c2ccc(C#N)c3ncccc23)C[C@H](COc2cccc(F)c2)O1 [ER-886606]	15
CC1CN(c2ccc(C#N)c3ncccc23)CC(C(=O)NC2CCCCC2O)O1 (stereo not shown) [ER-897938]	16
CC1CN(c2ccc(C#N)c3ncccc23)CC(C(=O)Nc2ncns2)O1 (stereo not shown) [ER-898922]	> 1000
CC1CN(c2ccc(C#N)c3ncccc23)CC(CN2CCC(NS(=O)(=O)c3ccc(F)cc3)CC2)O1 (stereo not shown) [ER-894150]	4
CC1CN(c2ccc(C#N)c3ncccc23)CC(CN2CCCC(O)C2)O1 (stereo not shown) [ER-886951]	79
C[C@@H]1CN(c2ccc(C#N)c3ncccc23)C[C@H](C(=O)NC2(C#N)CC2)O1 [ER-898921]	302
C[C@@H]1CN(c2ccc(C#N)c3ncccc23)C[C@H](COc2ccc(F)c(F)c2)O1 [ER-886605]	21
Cc1cc(C=O)cc(-c2ccc(C#N)c3ncccc23)c1 [ER-888200]	16
CC(=O)N[C@H]1CCN(C[C@H]2CN(c3ccc(C#N)c4ncccc34)C[C@@H](C)O2)C1 [ER-894546]	69
CC1CN(c2ccc(C#N)c3ncccc23)CC(C(C)O)O1 (stereo not shown) [ER-895310]	34
CC1CN(c2ccc(C#N)c3ncccc23)CC(CN2CC(N3CCNCC3)C2)O1 (stereo not shown) [ER-890119]	8
CC1CN(c2ccc(C#N)c3ncccc23)CC(C(C)O)O1 (stereo not shown) [ER-895200]	26
C[C@@H]1CN(c2ccc(C#N)c3ncccc23)C[C@H](Cn2cc(-c3ccccc3)nn2)O1 [ER-888604]	6
CC1CN(c2ccc(C#N)c3ncccc23)CC(CN2CCC(C3CCCCC3)CC2)O1 (stereo not shown) [ER-888479]	91
C[C@@H]1CN(c2ccc(C#N)c3ncccc23)C[C@H](CNc2ccnn2-c2ccccc2)O1 [ER-886860]	240
Cc1cc(NC[C@H]2CN(c3ccc(C#N)c4ncccc34)C[C@@H](C)O2)n(C)n1 [ER-888977]	217

SMILES	IC50 [nM]
CC1CN(c2ccc(C#N)c3ncccc23)CC(CN2CC(N3CCOCC3)C2)O1 (stereo not shown) [ER-890342]	121
CCN1CCC(NC(=O)[C@H]2CN(c3ccc(C#N)c4ncccc34)C[C@@H](C)O2)CC1 [ER-899626]	1
CC1CN(c2ccc(C#N)c3ncccc23)CC(C(=O)NCCC(O)C(F)(F)F)O1 (stereo not shown) [ER-899160]	252
CCC[C@H]1CN(c2ccc(C#N)c3ncccc23)C[C@@H](C)O1 [ER-886131]	98
CC1CN(c2ccc(C#N)c3ncccc23)CC(C(=O)NCCC(F)(F)F)O1 (stereo not shown) [ER-898565]	198
CC1CN(c2ccc(C#N)c3ncccc23)CC(C(=O)NCCF)O1 (stereo not shown) [ER-898914]	168
CC1CN(c2ccc(C#N)c3ncccc23)CC(C(=O)NC2CNC2)O1 (stereo not shown) [ER-897964]	20
Cc1cc(CN2CCC(N(C)C)CC2)cc(-c2ccc(C#N)c3ncccc23)c1 [ER-888646]	3
C[C@@H]1CN(c2ccc(C#N)c3ncccc23)C[C@H](C(=O)N2CCC(N)CC2)O1 [ER-899588]	7
CC1CN(c2ccc(C#N)c3ncccc23)CC(C(N)=O)O1 (stereo not shown) [ER-895472]	161
CC1CN(c2ccc(C#N)c3ncccc23)CC(C(=O)NCC2(F)CCNCC2)O1 (stereo not shown) [ER-899019]	14
CC(C)C(=O)N[C@H]1CCN(C[C@H]2CN(c3ccc(C#N)c4ncccc34)C[C@@H](C)O2)C1 [ER-894547]	12
C[C@@H]1CN(c2ccc(C#N)c3ncccc23)C[C@H](CN2CCNC(=O)[C@H]2C)O1 [ER-894483]	209
CC1CN(c2ccc(C#N)c3ncccc23)CC(CN2CCN(c3ccccn3)CC2)O1 (stereo not shown) [ER-888285]	14
CC1CN(c2ccc(C#N)c3ncccc23)CC(CN2CCC(NC(=O)c3cccnc3)CC2)O1 (stereo not shown) [ER-889728]	21
Cc1cc(CN2CCC(O)CC2)cc(-c2ccc(C#N)c3ncccc23)c1 [ER-888645]	47
CC1CCCC(NCC2CN(c3ccc(C#N)c4ncccc34)CC(C)O2)C1 (stereo not shown) [ER-887146]	38
C[C@@H]1CN(c2ccc(C#N)c3ncccc23)C[C@H](CN2CCCCC2)O1 [ER-888202]	8
C[C@@H]1CN(c2ccc(C#N)c3ncccc23)C[C@H](C(=O)N[C@H]2CN(C)C[C@H]2F)O1 [ER-899332]	14
Cc1ccc(OC[C@H]2CN(c3ccc(C#N)c4ncccc34)C[C@@H](C)O2)cc1 [ER-886516]	56
C[C@@H]1CN(c2ccc(C#N)c3ncccc23)C[C@H](CN2C[C@@H](C)O[C@@H](C)C2)O1 [ER-888204]	22
